# Reference: publication PMC11080064, “Inositol Hexaphosphate as an Inhibitor and Potential Regulator of p47^phox Membrane Anchoring” (Biochemistry, 2024)
# Entries after “also recorded” stand apart in the source; their conditions may differ.
# Legend:
# [1] = target: T1, p47phox-PX (PX domain of p47phox, residues 1-128) (Homo sapiens, UniProt P14598); experiment: 1H-15N-HSQC NMR titration (chemical shift perturbation) of inositol phosphates; assay type: binding; details: for Kd / binding observed by NMR (CSPs): 100 μM p47phox-PX; for Kd: pH 6.0, 25 °C, read-out: Kd (binding affinity, global fit of CSPs); for binding observed by NMR (CSPs): up to 64 mM
# T1 construct: poly histidine tag (TEV cleavable) (cleaved yes); made in house; host or cells: E. coli BL21 (DE3)
# T1 sequence (P14598 1-128): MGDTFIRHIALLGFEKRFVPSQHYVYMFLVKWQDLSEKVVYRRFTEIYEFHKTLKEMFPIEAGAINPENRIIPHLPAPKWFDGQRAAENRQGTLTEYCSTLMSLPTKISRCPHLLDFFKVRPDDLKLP
# Protocol: All NMR samples were prepared with either ^15N- or ^15N–^13C-p47^phox-PX in 50 mM Bis-Tris (pH 6.0), 100 mM NaCl, 1 mM DTT, 0.02% (v/v) sodium azide and 10% D2O as a lock solvent. Protein concentration was typically 100 μM in each sample, as confirmed by the Bradford Assay. NMR experiments were collected on a 600 MHz Bruker AVANCE III equipped with a TXI triple resonance probe at 25 °C. NMR assignments of the PX domain were transferred from a previous publication,[24] then were confirmed, and expanded by collection of 3D HNCA, HN(CA)CB, and CBCA(CO)NH experiments on a 700 MHz Bruker AVANCE III at 25 °C.[41]−[43] Standard Bruker pulse sequences were used with the HNCA collected with 64 scans and 1024 × 40 × 48 total points, the HN(CA)CB collected with 64 scans and 1024 × 40 × 64 total points, and the CBCA(CO)NH collected with 32 scans and 1024 × 40 × 96 total points. NMR data was processed with NMRPipe[44] and analyzed using NMRFAM-Sparky.[45]
# For NMR titrations, inositol phosphate stocks were prepared in the same NMR buffer, the IP6 stock was pH adjusted, and added in 0.25, 0.5, 2, and 4 to 1 mol equiv to the PX domain of p47^phox. Due to the high buffering capacity of IPs, pH values were checked during titrations and corrected as needed. ^1H–^15N-HSQC spectra were collected at each titration point, using a standard Bruker pulse sequence, collected with 2048 × 100 total points and 16 or 32 scans. Chemical shift perturbations (CSPs) were calculated using weighted chemical shifts in the following formula[46]: [drawing 1] where Δ^1H and Δ^15N represent the changes in the ^1H and ^15N chemical shifts for each resonance. To calculate the binding affinity of IPs to the PX domain of p47^phox, residues with ≥0.08 CSP at the highest titration point were fit to the following formula, which accounts for ligand depletion, on GraphPad Prism 10: [drawing 2] where CSP denotes the CSP of the individual residue at each IP concentration ([L]), Dmax represents the CSP at saturation, [P] represents the concentration of p47^phox-PX, and Kd represents the dissociation constant of p47^phox-PX and IP. The formula was initially fit to each residue individually and any residue with R^2 < 0.95 was removed before fitting the data globally to determine the overall binding affinity.
# p47phox-PX [2] = target: T2, p47phox-PX (Homo sapiens, UniProt P14598); experiment: Fluorescence polarization competition against BODIPY-PI(3,4)P2 tracer; assay type: binding
# T2 construct: poly histidine tag (TEV cleavable) (cleaved yes); made in house; host or cells: E. coli BL21 (DE3)
# T2 sequence (P14598 1-128): T1 sequence (P14598 1-128)
# Protocol: All fluorescence polarization (FP) experiments were performed using BODIPY-FL diC6–PI(3,4)P2 [Echelon Biosciences (Salt Lake City, UT)] as the reporting tracer. […] Each sample contained 50 nM BODIPY-PI(3,4)P2 and was plated in triplicate on a black half area 96-well microplate [Corning (Corning, NY)]. The plate was centrifuged at 500 rpm for 30 s prior to analysis on a SpectraMax M5 [Molecular Devices (San Jose, CA)]. Measurements were taken using a monochromator with fixed excitation and emission wavelengths of 485 and 525 nm, respectively, and a cutoff of 515 nm. Raw data was converted to millipolarization (mP) using the SoftMax Pro software [Molecular Devices (San Jose, CA)]. mP values were then converted to anisotropy (A) using the following formula: [drawing 3]
# A 2-fold dilution series of IP was performed, ranging from 50–0.05 μM IP in the presence of 2.5 μM p47^phox-PX and 50 nM BODIPY-PI(3,4)P2. Samples were plated in triplicate on a black half area microplate, centrifuged at 500 rpm for 30 s, and incubated for 1 h prior to analysis. The data was converted to anisotropy and fit to a four-parameter, variable slope, dose–response equation on GraphPad Prism 10. The IC50 from the dose–response equation was converted to an inhibitory constant (Ki) using a IC50-to-Ki calculator, which incorporated the following formula[47]: [drawing 5] where I50 and L50 are the free concentrations of IP and BODIPY-PI(3,4)P2, respectively, at 50% inhibition, and P0 is the free concentration of p47^phox-PX in the absence of IP.
# [3] = target: T3, p47phox-PX binding to PI(3,4)P2-containing liposomes (Homo sapiens, UniProt P14598); experiment: Dansyl-PE liposome FRET assay of membrane anchoring; assay type: biochemical; details: 2.5 μM p47phox-PX, 125 μM accessible lipid, 79:15:1:5 POPC:POPE:diC16-PI(3,4)P2:Dansyl-PE, pH 7.0, 1 mM MgCl2; read-out: apparent IC50 of inhibition of membrane anchoring
# T3 construct: poly histidine tag (TEV cleavable) (cleaved yes); made in house; host or cells: E. coli BL21 (DE3)
# T3 sequence (P14598 1-128): T1 sequence (P14598 1-128)
# Protocol: To ensure proper liposome formation, phosphatidylinositol stocks were protonated prior to use adapted from a previously published protocol.[28] In brief, lyophilized PI(3,4)P2 lipids were resuspended in CHCl3 and dried under nitrogen. Lipids were then further dried under a speed vacuum for 1 h followed by a resuspension into 2:1:0.01 CHCl3: MeOH: 1 M HCl. The suspension was allowed to sit at room temperature for 15 min before the drying process was repeated. Lipids were then reconstituted in 3:1 CHCl3: MeOH and dried as above. The process was repeated with CHCl3 before a final resuspension into CHCl3 at the desired concentration and storage of protonated stocks at −80 °C. […]
# The FRET assay was performed based on a previously published protocol,[48] where intrinsic tryptophan fluorescence within the PX domain was utilized as the donor fluorophore and Dansyl-PE incorporated within liposomes as the acceptor fluorophore. […] Samples were mixed for 40 s after each IP6 addition and were analyzed on an OLIS 14 TB NIR/CD Spectrophotometer [Olis (Bogart, GA)] equipped with a UV/vis photon counter 230–870 nm fluorescence detector. […] Each titration point measurement was integrated over 10 s and measured in triplicate. […]
# p47phox-PX [4] = target: T2, p47phox-PX; experiment: Fluorescence polarization direct binding of BODIPY-PI(3,4)P2 tracer; details: 50 nM tracer, 10-0.02 μM protein, pH 7.0, 1 mM MgCl2
# Protocol: All fluorescence polarization (FP) experiments were performed using BODIPY-FL diC6–PI(3,4)P2 [Echelon Biosciences (Salt Lake City, UT)] as the reporting tracer. To determine the binding affinity of the fluorophore to p47^phox-PX, a series of 2-fold dilutions, ranging from 10–0.02 μM protein, were performed in 50 mM Bis-Tris (pH 7.0), 100 mM NaCl, 1 mM MgCl2, and 1 mM DTT. Each sample contained 50 nM BODIPY-PI(3,4)P2 and was plated in triplicate on a black half area 96-well microplate [Corning (Corning, NY)]. The plate was centrifuged at 500 rpm for 30 s prior to analysis on a SpectraMax M5 [Molecular Devices (San Jose, CA)]. Measurements were taken using a monochromator with fixed excitation and emission wavelengths of 485 and 525 nm, respectively, and a cutoff of 515 nm. Raw data was converted to millipolarization (mP) using the SoftMax Pro software [Molecular Devices (San Jose, CA)]. mP values were then converted to anisotropy (A) using the following formula: [drawing 3] […]
molecule,measurement,setting,value
"O=P(O)(O)O[C@H]1[C@H](O)[C@@H](OP(=O)(O)O)[C@H](OP(=O)(O)O)[C@@H](OP(=O)(O)O)[C@H]1O [IP4, inositol (1,3,4,5) tetrakisphosphate]",Kd,[1]; NMR titration,100 ± 11 µM
"O=P(O)(O)O[C@H]1[C@H](OP(=O)(O)O)[C@@H](OP(=O)(O)O)[C@H](OP(=O)(O)O)[C@@H](OP(=O)(O)O)[C@H]1OP(=O)(O)O [IP6, inositol hexaphosphate]",Ki,"p47phox-PX [2]; 2.5 μM p47phox-PX, 50 nM BODIPY-PI(3,4)P2, pH 7.0, 1 mM MgCl2, read-out: Ki (inhibition constant, converted from IC50)",0.6 ± 0.2 µM
same,effect of lower pH on inhibition / Ki,"p47phox-PX [2]; pH 6 with 1 mM MgCl2, compared to pH 7.0",no significant change in Ki; also recorded: only a minor effect
same,effect of absence of MgCl2 on inhibition / Ki,p47phox-PX [2]; pH 6 with no MgCl2,no significant change in Ki; also recorded: little to no effect
same,approximate affinity inferred from intermediate-exchange line-broadening,"[1]; NMR titration, line-broadening precluded Kd fit",low-μM or lower affinity
same,IC50,[3],1.3 ± 0.3 µM
"O=P(O)(O)O[C@H]1[C@H](O)[C@@H](O)[C@H](OP(=O)(O)O)[C@@H](OP(=O)(O)O)[C@H]1O [IP3, inositol (1,3,4) trisphosphate]",Kd,[1]; NMR titration,200 ± 50 µM
O=P(O)(O)OC1[C@H](O)[C@H](O)C(O)[C@H](O)[C@H]1O (stereo partly shown) [inositol-1-phosphate],Kd,[1]; NMR titration,870 ± 120 µM
O[C@H]1[C@H](O)[C@@H](O)[C@H](O)[C@@H](O)[C@H]1O [Inositol],binding observed by NMR (CSPs),[1],no significant CSPs were observed
same,binding observed by NMR (CSPs),[1]; listed as inositol,no significant binding
"BODIPY-FL diC6–PI(3,4)P2 [BODIPY-PI(3,4)P2]",Kd,p47phox-PX [4],0.35 ± 0.05 µM
"O=P(O)(O)O[C@@H]1[C@@H](OP(=O)(O)O)[C@H](OP(=O)(O)O)[C@H](O)[C@H](OP(=O)(O)O)[C@H]1OP(=O)(O)O [IP5, inositol (1,3,4,5,6) pentakisphosphate]","competition with BODIPY-PI(3,4)P2 binding","p47phox-PX [2]; up to 50 μM, 2.5 μM p47phox-PX, 50 nM tracer",no apparent capacity to inhibit; also recorded: no significant observed competition
same,Kd,[1]; NMR titration,58 ± 6 µM
